Experimental data published in patent US11384115B2, “Nuclear sulfated oxysterol, potent regulator of lipid homeostasis, for therapy of hypercholesterolemia, hypertriglycerides, fatty liver diseases, and atherosclerosis” (Virginia Commonwealth University, priority 2004, dated 2022).

Experiments:
PPARγ [1] = molecular target: T1, PPARγ (Homo sapiens, UniProt P37231); assay: Confocal immunofluorescence of intracellular PPARγ distribution in THP-1 macrophages; type: cell-based; conditions: compared with DMSO; 25 μM 25HC3S, 1 μM T0070907
T1 construct: THP-1 monocytes were differentiated to macrophages by adding 100 nM of phorbol 12-myristate 13-acetate (PMA); endogenous in cells; host or cells: THP-1 monocyte-derived macrophages (human, ATCC)
T1 sequence (P37231 1-505): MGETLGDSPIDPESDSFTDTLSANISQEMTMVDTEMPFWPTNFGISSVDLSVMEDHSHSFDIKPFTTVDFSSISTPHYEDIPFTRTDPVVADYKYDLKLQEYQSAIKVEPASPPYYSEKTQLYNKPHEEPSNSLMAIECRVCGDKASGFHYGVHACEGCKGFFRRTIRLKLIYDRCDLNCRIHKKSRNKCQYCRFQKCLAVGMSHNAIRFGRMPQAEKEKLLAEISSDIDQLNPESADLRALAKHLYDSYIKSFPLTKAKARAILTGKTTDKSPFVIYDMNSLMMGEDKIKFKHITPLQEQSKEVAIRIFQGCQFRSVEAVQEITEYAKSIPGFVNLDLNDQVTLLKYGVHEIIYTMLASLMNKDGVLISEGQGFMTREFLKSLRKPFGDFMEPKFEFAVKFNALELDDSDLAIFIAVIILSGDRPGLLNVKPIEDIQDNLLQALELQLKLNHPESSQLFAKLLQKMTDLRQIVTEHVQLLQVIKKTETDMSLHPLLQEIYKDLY
Method: Confocal microscopy analysis of intracellular translocation of PPARγ protein distribution. The nuclear marker was stained with DAP1 and PPARγ protein was detected by anti-PPARγ immunofluorescence.
THP-1 derived macrophages were cultured on coverslips in six-well plates and treated with different concentrations of 25HC and 25HC3S for 4 hrs. The cells on coverslips were washed with PBS, fixed with 3.7% formaldehyde for 10 min at 4° C., and then rinsed three times with PBS at room temperature. They were then permeabilized with PBS containing 0.1% of TritonX-100 for 3 min and washed with PBS before blocking by incubation with 5% of normal goat serum in PBS overnight at 4° C. For interaction with primary antibodies, cells were incubated with 2.5% normal goat serum in PBS containing PPARγ antibody for 1 hr in an incubator. Cells were washed in PBS containing 0.05% of Tween 20 (3×10 min). The bound primary antibodies were visualized with Alexa Fluor 488 goat anti-mouse IgG. The minor groove of double stranded DNA as a nuclear marker was stained by DAPI. Afterwashing, coverslips were mounted on slides and viewed with a Zeiss LSM 510 Meta confocal microscope.

NFκB = NFκB dependent reporter gene-Luc assay in H441 cells, TNFα-induced; type: cell-based, human
Method: A, THP-1 macrophages were treated with 25HC3S or 25HC for 24 hrs followed by addition or no addition of TNFα for another 3 hrs. The nuclear NFκB levels were analyzed by Western blot. The data represent one typical result out of three experiments. […] The reporter gene expression was induced by incubating with 10 ng/ml of TNFα for 3 hrs. The left figure represents cells transfected with pNFκB dependent reporter gene-Luc plasmid alone; the right figure, represents cells co-transfected with PPARγ expression plasmid.
H441 cells were seeded in 96-well plates. When cell density reached 90-95%, the cells were transfected with an expression plasmid as indicated using a lipid-based FuGENE HD transfection reagent according to the manufacture (Roche, Indianapolis, Ind.). A synthetic renilla luciferase reporter, phrG-TK (Promega, Wisconsin, Wis.), was used as a luciferase internal standard. For PPRE reporter gene assay, 50 ng of pGL3-PPRE-acyl-CoA oxidase luciferase reporter, 50 ng of expression plasmid pCMX-PPARγ, and 50 ng of phrG-TK vector (internal standard) were cotransfected as per the manufacture's instruction. […] Luciferase activities were determined using the Dual-Glo Luciferase Assay System according to the manufacturer's protocol (Promega, Wisconsin, Wis.). The amount of luciferase activity was measured using a TopCount NXT Microplate Scintillation and Luminescence Counter (Packard, Meriden, Conn.) and normalized to the amount of phG-TK luciferase activity. Transfections were carried out in triplicate for each sample, and each experiment was repeated three times.

HMG CoA reductase = assay: Western blot of HMG CoA reductase protein in HepG2 cells; type: cell-based, human
Method: FIGS. 15A-15D. 25HC3S regulates HMGR mRNA Expression. Real time RT-PCR analysis of HMG CoA R reductase expression in HepG2 cells (FIGS. 15A and 15B). Western blot analysis of protein levels of HMG CoA reductase (FIG. 15C). Total RNAs were purified using SV Total RNA Isolation Kit (Promega) from the cells treated with 25HC3S at concentrations as indicated (FIG. 15A) and incubation at 12 μM of 25HC3S for the different times (effect on HMG CoA mRNA) (FIG. 15B). Two μg of total RNA was used for cDNA preparation (RT) and performed as manufacture recommended (Invitrogen), and 10 ng of cDNA was used for real time PCR. The expression levels were normalized to GAPDH. The bands of HMG CoA reductase (HMGR) were quantitated by laser density scanning. Each value represents mean of three experiments±standard derivation.
Microsomal proteins (80 μg) were separated on a 7.5% SDS-polyacrylamide denaturing gel according to the method of Laemmli (14). Following SDS-PAGE (Hoefer Vertical Slab Gel Unit; Heofer, San Francisco, Calif.), proteins were electrophoretically transferred overnight (4° C.) to Immobilon-P membranes using a Hoefer Trans Blot Electrophoretic Transfer cell. The membranes were then blocked for 90 minutes (25° C.) in blocking buffer (PBS, pH 7.4, 0.1% Tween, 5% non-fat dry milk). […] Protein bands were detected using the Amersham ECL plus Kit.

HepG2 cells = assay: Cholesterol biosynthesis from [1-14C]acetate by TLC and HPLC; type: cell-based, human; conditions: HepG2, 25HC3S 6 hrs then [14C]acetate 4 hrs
Method: After incubation of HepG2 cells with media containing 25HC3S for 6 hrs, cultures in 25-cm2 flasks were given 3 ml of the same fresh medium containing 5 μCi of the [1-^14C]acetate. After 4 hr incubation at 37° C., the media were removed and the cells were washed twice with phosphate-saline buffer (PBS), harvested with rubber police as described, and collected in Eppendoff tubes. The cells were sedimented by centrifugation and the pellets were washed three times by resuspension and sedimentation. The pellets were resuspended in 0.3 ml of PBS. The total lipids were extracted and separated by adding 3 volume of chloroform:methanol (v/v, 1:1). [^14C]Cholesterol and 27-hydroxycholesterol was isolated into chloroform phase and separated on TLC (tuluene:acetyl acetate, 2/3, v/v/). [1-^14C]acetate derivatives were visualized by Image Reader, Fujifilm BAS-1800 II.
[1-^14C]Acetate derivatives in the chloroform phase were analyzed by HPLC on an Ultrasphere Silica column (5μ×4.6 mm×25 cm; Backman, USA) using HP Series 1100 solvent delivery system (Hewlett Packard) at 1.3 ml/min flow rate. The column was equilibrated and run in a solvent system of hexane:isopropanol:glacial acetic acid (965:25:10, v/v/v), as the mobile phase. The effluents were collected every 0.5 min (0.65 ml per fraction) except as indicated. The counts in [^14C]acetate derivatives were determined by Scintillation Counting. […]

PPARγ [2] = molecular target: T1, PPARγ; assay: PPARγ transcription factor assay (PPRE-immobilized ELISA) of nuclear extracts; type: cell-based; conditions: THP-1 macrophages, 4 hrs, concentration-dependent
Method: PPAR response elements (PPRE) binding activities were measured using an enzyme-linked immunosorbent assay (PPAR transcription factor assay kit; Cayman Chemical, Ann Arbor, Mich.). The 96-well plate was preimmobilized with deoxyoligonucleoties containing PPRE. […] The cells were then rinsed and nuclear proteins were extracted according to the manufacturer's instructions. Total nuclear extract protein, 10 g from each sample, was added to the plate. The kit provided two negative as zero controls, one positive as maximal binding control, and one competitive as specific binding control (in the presence of dsDNA) were used in the assay. After incubating for 1 hr, the wells were washed and incubated with primary PPAR antibody which recognizes the accessible epitope on PPAR protein upon PPRE binding. The peroxidase-labeled second antibody was added and incubated for 1 hr. The reaction was stopped and absorbance was read at 450 nm in a spectrophotometer.

C[C@H](CCCC(C)(C)O)[C@H]1CC[C@H]2[C@@H]3CC=C4C[C@@H](OS(=O)(=O)O)CC[C@]4(C)[C@H]3CC[C@]12C [25HC3S, 5-cholesten-3β, 25-diol 3-sulphate]
nuclear PPARγ fluorescence intensities (PPARγ [1]): increased | TNFα induction of NFκB dependent reporter gene expression (NFκB; H441, absence of PPARγ expression plasmid): failed to suppress | reduction of TNFα induction of NFκB dependent reporter gene expression (NFκB; H441 co-transfected with PPARγ expression plasmid): 50% | suppression of NFκB reporter induction in the presence of PPARγ antagonist (NFκB; H441 co-transfected with PPARγ, T0070907): the suppression was blunted | decrease of HMG CoA reductase protein level (HMG CoA reductase): 50% | free [14C]cholesterol synthesized from [14C]acetate (HepG2 cells): significantly decreased | PPRE-binding activities of the nuclear extracts (PPARγ [2]): significantly increased
